{
  "source": "patent US11667649B2",
  "about": "“Heteroaromatic macrocyclic ether chemotherapeutic agents” (Nuvalent, Inc., priority 2020, dated 2023)",
  "key": {"[1]": {"settings": "cc_pd bond, 12-membered ring"}, "[2]": {"system": "ROS1-positive NSCLC", "settings": "treatment of ROS1-positive NSCLC; cited from earlier work"}, "[3]": {"system": "TPM3-NTRK1-wt IC50 / primary target (e.g. CD74-ROS1-wt) IC50, Ba/F3 cells", "assay": "Cell assay TRKA selectivity (TRKA potency divided by primary target potency)", "format": "cell-based", "procedure,_shortened": "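IL-3-independent Ba/F3 lines stably expressing TPM3-TRKA or the primary fusion (e.g. CD74-ROS1 wt) were exposed to 3-fold compound dilutions for 72 h. Viability was read by CellTiter-Glo luminescence, with IC50 from four-parameter logistic fit. Selectivity is TPM3-NTRK1 IC50 divided by primary-target IC50, binned A (>30-fold) to D (<1).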"}},
  "note": "Like-named read-outs stand apart in the source and are kept apart here.",
  "data": [
    {"smiles": "CC(Oc1cc(Br)cnc1N)c1cc(F)ccc1-c1c(Cn2cnc(C#N)c2)cnn1C", "note": "(stereo not shown)", "values": [
      {"measurement": "ring closure, yield after HPLC", "setting": "[1]; the molecule shown is the open-chain precursor, Pd(OAc)2/cataCXium A/KOAc, 2-methyl-2-butanol, 30.0 mM, 120.0 °C", "value": 5.9, "unit": "%"}
    ]},
    {"smiles": "CC1Oc2cc(cnc2N)-c2c(nn(C)c2C#N)Cc2ccnn2-c2ccc(F)cc21", "note": "(stereo not shown)", "values": [
      {"measurement": "ring closure, yield after HPLC", "setting": "[1]; from CC(Oc1cc(Br)cnc1N)c1cc(F)ccc1-n1nccc1Cc1cc(C#N)n(C)n1, Pd(OAc)2/cataCXium A/KOAc, 2-methyl-2-butanol, 20.0 mM, 120.0 °C", "value": 17, "unit": "%"}
    ]},
    {"smiles": "CCc1noc2c1-c1cnc(N)c(n1)O[C@H](C)c1cc(F)ccc1-c1nn(C)cc1C2", "values": [
      {"measurement": "ring closure, yield after HPLC", "setting": "[1]; from CCc1cc(Cc2cn(C)nc2-c2ccc(F)cc2[C@@H](C)Oc2nc(Br)cnc2N)on1, Pd(OAc)2/cataCXium A/KOAc, 2-methyl-2-butanol, 20.0 mM, 120.0 °C, 6.0 h", "value": 24, "unit": "%"}
    ]},
    {"smiles": "CCn1ncc2c1-c1cnc(N)c(c1)OC(C)c1cc(F)ccc1-c1nccn1C2", "note": "(stereo not shown)", "values": [
      {"measurement": "ring closure, yield after HPLC", "setting": "[1]; from CCn1ncc(Cn2ccnc2-c2ccc(F)cc2C(C)Oc2cc(Br)cnc2N)c1Br, B2pin2/Pd(OAc)2/cataCXium A/NaOH, MeOH/H2O, 57.0 mM, 75.0 °C, 3.0 h", "value": 10, "unit": "%"}
    ]},
    {"smiles": "CCn1ncc2c1-c1cnc(N)c(c1)O[C@H](C)c1cc(F)ccc1-c1nn(C)cc1C2", "values": [
      {"measurement": "ring closure, yield after HPLC", "setting": "[1]; from CCn1ncc(Cc2cn(C)nc2-c2ccc(F)cc2[C@@H](C)Oc2cc(Br)cnc2N)c1Br, B2pin2/Pd(OAc)2/cataCXium A/NaOH, MeOH/H2O, 41.0 mM, 80.0 °C, 12.0 h", "value": 10, "unit": "%"}
    ]},
    {"smiles": "C[C@H]1Oc2cc(cnc2N)-c2c(C#N)cnn2Cc2cn(C)nc2-c2ccc(F)cc21", "values": [
      {"measurement": "ring closure, yield after HPLC", "setting": "[1]; from C[C@@H](Oc1cc(Br)cnc1N)c1cc(F)ccc1-c1nn(C)cc1Cn1cc(C#N)cn1, Pd(OAc)2/cataCXium A/KOAc, 2-methyl-2-butanol, 32.0 mM, 120.0 °C", "value": 15, "unit": "%"}
    ]},
    {"smiles": "C[C@@H](Oc1cc(-c2cnn(C3CCNCC3)c2)cnc1N)c1c(Cl)ccc(F)c1Cl", "note": "[Crizotinib, crizotinib]", "values": [
      {"measurement": "median progression-free survival", "setting": "[2]", "value": "9-19 months"},
      {"measurement": "overall response rate", "setting": "[2]", "value": "60-80%"}
    ]},
    {"smiles": "CCc1nn(C)c2c1-c1cnc(N)c(c1)OCc1cc(F)ccc1-c1ncccc1C2", "note": "[Example 170, 3-ethyl-17-fluoro-5-methyl-21-oxa-4,5,12,24-tetraazapentacyclo[20.3.1.0^2,^6.0^8,^13.0^14,^19]hexacosa-1(25),2(6),3,8(13),9,11,14,16,18,22(26),23-undecaen-23-amine]", "values": [
      {"measurement": "ring closure, yield after HPLC", "setting": "[1]; from CCc1nn(C)c(Cc2cccnc2-c2ccc(F)cc2COc2cc(Br)cnc2N)c1Br, B2pin2/Pd(OAc)2/cataCXium A/CsF, MeOH/H2O, 17.0 mM, 80.0 °C, 5.0 h", "value": 3.3, "unit": "%"},
      {"measurement": "TPM3-NTRK1-wt/CD74-ROS1-G2032R", "setting": "[3]; TRKA selectivity ratio: TPM3-NTRK1-wt IC50 / CD74-ROS1-G2032R IC50, Ba/F3 cells", "value": "A (bin A for very high selectivity, ratio>30-fold)"},
      {"measurement": "TPM3-NTRK1-wt/CD74-ROS1-wt", "setting": "[3]; TRKA selectivity ratio: TPM3-NTRK1-wt IC50 / CD74-ROS1-wt IC50, Ba/F3 cells", "value": "A (bin A for very high selectivity, ratio>30-fold)"},
      {"measurement": "TPM3-NTRK1-wt/EML4-ALK-L1196M-G1202R", "setting": "[3]; TRKA selectivity ratio: TPM3-NTRK1-wt IC50 / EML4-ALK-L1196M-G1202R IC50, Ba/F3 cells", "value": "B (bin B for high selectivity, ratio>10-fold)"},
      {"measurement": "TPM3-NTRK1-wt/EML4-ALK-wt", "setting": "[3]; TRKA selectivity ratio: TPM3-NTRK1-wt IC50 / EML4-ALK-wt IC50, Ba/F3 cells", "value": "A (bin A for very high selectivity, ratio>30-fold)"}
    ]}
  ]
}
